Data taken from patent US20230105212A1, “BIPHENYL DERIVATIVE INHIBITOR, PREPARATION METHOD THEREFOR AND USE THEREOF” (SHANGHAI HANSOH BIOMEDICAL CO., LTD., priority 2020, published 2023).
pEC50, pIC50: −log10 of the molar value.

Columns and labels:
human PD-1/PD-L1 binding = target: T1, human PD-1/PD-L1 binding (Homo sapiens, UniProt Q9NZQ7); experiment: Inhibition of human PD-1/PD-L1 binding (TR-FRET/HTRF); settings: TR-FRET, PD-L1-His and PD-1-Fc; read-out: PD-1/PD-L1 binding IC50
T1 construct: PD-L1-His protein (19 to 238 amino acids) (Abcam #ab167713); purchased Abcam (PD-L1-His); R&D (PD-1-Fc) ab167713; 1086-PD
Summary of the method: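 PD-L1-His (aa 19–238, diluted to 10 nM) and PD-1-Fc (aa 25–167, diluted to 20 nM) incubated with compounds (10 μM or 1 μM top, 3-fold, 11 doses) 60 min at room temperature, then anti-6HIS Eu cryptate/anti-human IgG-XL665 added for 3 h RT or overnight 4 °C. HTRF 665/620 nm ratio gave inhibition and IC50.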

[1] = tested on: CHO-PDL1/Jurkat-PD1 cell pathway; experiment: Inhibition of CHO-PDL1/Jurkat-PD1 cell pathway (NFAT luciferase reporter); assay type: cell-based; settings: for pEC50: 6 hours incubation, luciferase signal; for maximal fold induction: relative to the signal value of the non-dosed group, read-out: Maximum induction fold
Procedure: Test Embodiment 3. Inhibitory Effect of the Compounds of the Present Disclosure on CHO-PDL1/Jurkat-PD1 Cell Pathway
Experimental purpose: The purpose of this test embodiment was to test the inhibitory effect of compounds on the CHO-PDL1/Jurkat-PD1 cell pathway.
Experimental method: Two stably transfected cell lines were included in this experiment, CHO-K1 cells stably transfected with PD-L1 and Jurkat cells stably transfected with PD-1 and NFAT luciferase reporter genes. Compounds were incubated with the two cell lines. Then, due to the inhibitory effect on the PD-1/PD-L1 pathway, the activation degree of Jurkat cells changed, so that the level of the reporter gene NFAT in the downstream of Jurkat cells changed, and the level of NFAT was characterized by detecting the signal value of luciferase, so that the inhibitory effect of the test compound on CHO-PDL1/Jurkat-PD1 pathway was characterized.
CHO-PDL1 cells (Promega, #J1252) were cultured to a suitable cell density. After digestion, the cells were resuspended by complete medium to become a suitable density of cell suspension. The cell suspension was plated 100 μL per well on a 96-well plate (Corning, #3610), and placed in a 37° C., 5% CO2 incubator and incubated overnight, and assay medium (RPMI 1640+2% FBS, RPMI 1640 Cat. No.: Gibco, #22400089, FBS Cat. No.: Gibco, #10091148) was used to prepare compound solutions of different concentrations. NFAT-luc2/PD1 Jurkat cells (Promega, #J1252) were collected and resuspended to the appropriate cell density using assay medium. The supernatant of the CHO-PDL1 cell culture plate was aspirated, and 40 μL of the prepared compound solution and 40 μL of resuspended NFAT-luc2/PD1 Jurkat cells were added, and incubated in a 5% CO2 incubator at 37° C. for 6 hours, and the cell plate was taken out, then 40 μL of One-Glo reagent (Promega, #E6120) was added to each well, shaked and mixed well, incubated in the dark at room temperature for 10 minutes, then put into a microplate reader and the luminescence program was used to read the luminescence value of the cell plate.
The EC50 value was fitted according to the compound concentration and the luminescence signal value, and the maximum induction fold of each compound relative to the signal value of the non-dosed group was calculated, as shown in Table 3.

[2] = tested on: NFAT-luc2/PD1 Jurkat cells; experiment: In vitro cytotoxicity on NFAT-luc2/PD1 Jurkat cells (CellTiter-Glo); assay type: cell-based; settings: 72 hours; for pIC50: Homo sapiens, Jurkat
Procedure: (§1) Test Embodiment 5. In Vitro Cytotoxicity of the Compounds of the Present Disclosure on NFAT-Luc2/PD1 Jurkat Cells and MC38-hPDL1 Cells
(§2) Experimental purpose: To test the in vitro cytotoxicity of compounds on NFAT-luc2/PD1 Jurkat cells and MC38-hPDL1 cells.
(§3) When the cells were cultured to an appropriate degree of confluency, the cells were collected, and the cells was adjusted in an appropriate cell concentration by complete medium, then the cell suspension was plated in a 96-well plate, 90 μL per well, and put in a 37° C., 5% CO2 incubator overnight; compound solutions of different concentrations were prepared by DMSO and medium, and a vehicle control was set; compound solutions were added to a 96-well plate, 10 μL per well, and put in a 37° C., 5% CO2 incubator and cultured for 72 hours. After that, CellTiter-Glo solution was added, the mixture was shaken and mixed evenly, incubated in the dark for 10 minutes, and a BioTek Synergy H1 microplate reader was used for reading.
(§4) Luminescence signal value was used to calculate the inhibition rate, and the concentration and inhibition rate were fitted by nonlinear regression curve using Graphpad Prism software to obtain IC50 values, as shown in the following table: […]

MC38-hPDL1 cells = experiment: In vitro cytotoxicity on MC38-hPDL1 cells (CellTiter-Glo); assay type: cell-based, mouse; settings: for MC38-hPDL1 inhibition rate (%): 72 hours; for pIC50: Mus musculus, MC38-hPD-L1, 72 hours
Procedure: as §1, §2, §3, §4

human PD-L1 protein = target: T2, human PD-L1 protein (Homo sapiens, UniProt Q9NZQ7); experiment: Thermal shift: melting temperature of PD-L1 protein; assay type: binding; settings: compound 10 μM, PD-L1 protein 2 μM, Tm minus DMSO vehicle control; read-out: ΔTm (° C.)
T2 construct: purchased Acro Biosystems PD1-H5229
Summary of the method: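 Human PD-L1 at 2 μM final was tested in […], 150 mM NaCl with SYPRO Orange, heated 25→95 °C at 0.03 °C/s in a PCR melt-curve run. Tm was taken per treatment; ΔTm is the shift relative to DMSO vehicle.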

[3] = target: T3, PD-L1 protein on the surface of MC38-hPDL1 tumor cells (Homo sapiens, UniProt Q9NZQ7); experiment: Induction of endocytosis of PD-L1 on the surface of tumor cells (flow cytometry); assay type: cell-based; settings: 16 hours incubation
T3 construct: expressed in transfected cells; host or cells: MC38-hPDL1 (mouse colon cancer cells)
Summary of the method: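 IC50 comes from nonlinear fits of endocytosis rate, calculated from the loss of surface PE-anti-CD274 flow signal relative to vehicle. Cells were MC38 mouse colon cancer cells engineered to express high human PD-L1. Compound exposure lasted 16 h at 37 °C, 5% CO2.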

T3 sequence (Q9NZQ7 19-290): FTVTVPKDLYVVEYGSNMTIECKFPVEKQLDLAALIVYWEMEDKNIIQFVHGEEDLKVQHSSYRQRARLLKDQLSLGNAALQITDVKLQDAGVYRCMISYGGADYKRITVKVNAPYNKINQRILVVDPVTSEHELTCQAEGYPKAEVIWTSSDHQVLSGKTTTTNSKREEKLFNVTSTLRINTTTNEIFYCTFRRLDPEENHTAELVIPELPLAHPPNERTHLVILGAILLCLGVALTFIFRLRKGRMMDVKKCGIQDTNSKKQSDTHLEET
T2 sequence (Q9NZQ7 19-238 limits assumed): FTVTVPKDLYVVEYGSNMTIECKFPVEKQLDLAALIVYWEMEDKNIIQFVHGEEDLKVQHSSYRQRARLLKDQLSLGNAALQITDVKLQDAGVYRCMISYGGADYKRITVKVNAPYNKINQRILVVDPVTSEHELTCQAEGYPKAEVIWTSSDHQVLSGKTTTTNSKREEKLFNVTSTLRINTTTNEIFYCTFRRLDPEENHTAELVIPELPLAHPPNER
T1 sequence (Q9NZQ7 19-238): as the sequence (Q9NZQ7 19-238 limits assumed) above

Row | pIC50 (human PD-1/PD-L1 binding) | ΔTm at 10 µM (human PD-L1 protein) [°C] | Emax ([3]; MC38-hPDL1 cells, read-out: MC38 maximum endocytosis rate) [%] | pIC50 ([3]; inducing endocytosis of PD-L1, MC38-hPDL1 cells, read-out: MC38 IC50) | Structure (SMILES) | pEC50 [1] | maximal fold induction [1] | Jurkat-PD1 inhibition rate (%) [2] | pIC50 [2] | MC38-hPDL1 inhibition rate (%) (MC38-hPDL1 cells) | pIC50 (MC38-hPDL1 cells)
1 | 8.66 | – | – | – | COc1cc(-c2cccc(-c3cccc(NC(=O)c4nc5c(n4C)CCN(C)C5)c3Cl)c2Cl)ccc1CNCC(=O)O [Embodiment 159, ((2′,2″-Dichloro-3″-(1,5-dimethyl-4,5,6,7-tetrahydro-1H-imidazo[4,5-c]pyridine-2-carboxamido)-3-methoxy-[1,1′:3′,1″-terphenyl]-4-yl)methyl)glycine] | 7.35 | 3.2 | 24% | < 5.00 | 5 | < 5.00
2 | – | 11 | 80 | 8.00 | COc1cc(C(=O)Nc2cccc(-c3cccc(NC(=O)c4nc5c(n4C)CCN(C)C5)c3Cl)c2C)ncc1CNc1ccnc(C)n1 [Embodiment 90, N-(2-Chloro-3′-(4-methoxy-5-(((2-methylpyrimidin-4-yl)amino)methyl)picolinamido)-2′-methyl-[1,1′-biphenyl]-3-yl)-1,5-dimethyl-4,5,6,7-tetrahydro-1H-imidazo[4,5-c]pyridine-2-carboxamide] | 7.00 | 3.2 | 99.0%^ | 5.85 | 6.8 | < 5.00
